Where a name gives a salt, the structure may show the parent alone.
Target: T1, Human TRPV3 (Homo sapiens, UniProt Q8NET8)
T1 construct: expressed in transfected cells; host or cells: CHO cells (selected with G-418)
T1 sequence (Q8NET8 1-790): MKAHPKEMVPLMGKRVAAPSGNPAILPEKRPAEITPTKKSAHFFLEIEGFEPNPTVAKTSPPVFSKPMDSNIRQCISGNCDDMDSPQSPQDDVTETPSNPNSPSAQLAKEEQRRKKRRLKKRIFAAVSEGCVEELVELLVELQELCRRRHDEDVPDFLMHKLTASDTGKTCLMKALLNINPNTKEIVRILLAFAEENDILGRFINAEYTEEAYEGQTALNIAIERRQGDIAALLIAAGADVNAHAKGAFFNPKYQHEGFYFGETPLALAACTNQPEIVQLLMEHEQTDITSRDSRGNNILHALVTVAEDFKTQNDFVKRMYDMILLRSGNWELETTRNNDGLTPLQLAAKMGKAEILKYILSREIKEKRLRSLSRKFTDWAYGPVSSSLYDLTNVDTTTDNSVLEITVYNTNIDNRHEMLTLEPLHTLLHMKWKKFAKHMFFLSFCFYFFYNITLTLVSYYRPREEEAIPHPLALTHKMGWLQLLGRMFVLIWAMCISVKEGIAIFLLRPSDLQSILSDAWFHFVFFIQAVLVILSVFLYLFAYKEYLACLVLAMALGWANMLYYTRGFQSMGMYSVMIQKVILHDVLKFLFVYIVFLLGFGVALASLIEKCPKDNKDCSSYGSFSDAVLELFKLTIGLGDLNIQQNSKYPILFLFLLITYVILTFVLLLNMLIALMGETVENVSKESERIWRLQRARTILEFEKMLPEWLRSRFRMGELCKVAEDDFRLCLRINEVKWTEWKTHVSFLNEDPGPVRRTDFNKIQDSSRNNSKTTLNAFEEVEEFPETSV
Assay: Screening for TRPV3 antagonist using the 45Calcium uptake assay (inhibition of 2-APB induced cellular uptake of radioactive calcium)
Assay type: cell-based
Conditions: Human TRPV3 expressing CHO cells, 2-APB 500 μM; for inhibition at 1 µM / inhibition at 10 µM: CHO; for inhibition at 1 µM: read-out: Percentage inhibition at 1.0 μM; for inhibition at 10 µM: 10.0 μM test compound, read-out: Percentage inhibition at 10.0 μM
Source text: The illustrative examples of the present invention are screened for TRPV3 activity according to a modified procedure described in Tóth, A., Kedei, N., Wang, Y. and Blumberg, P. M. Life Sciences (2003), 73, 487-498. The screening of the compounds can be carried out by other methods and procedures known to a person skilled in the art. Such screening methods may be found in (a) Hu, H.-Z. et al. J. Biol. Chem. (2004), 279, 35741-35747; (b) Smith, G. D. et al. Nature (2002), 418, 186-190; (c) Peier, A. M. et al. Science (2002), 296, 2046-2049.
Screening for TRPV3 Antagonist Using the ^45Calcium Uptake Assay:
The inhibition of TRPV3 receptor activation was followed as inhibition of 2-aminoethxydiphenylborate (2-APB) induced cellular uptake of radioactive calcium. Test compounds were dissolved in dimethyl sulfoxide (DMSO) to prepare 20 mM stock solution and then diluted using plain medium with DMEM/F-12 containing 1.8 mM CaCl2 to get desired concentration. Final concentration of DMSO in the reaction was 0.5% (v/v). Human TRPV3 expressing CHO cells were grown in DMEM/F-12 medium with 10% FBS, 1% penicillin-streptomycin solution, 400 μg/ml of G-418. Cells were seeded 24 h prior to the assay in 96 well plates so as to get ˜50,000 cells per well on the day of experiment. Cells were treated with test compounds for 10 minutes followed by addition of 2-APB at a final concentration of 500 μM and 5 μCi/ml ^45Ca^+2 for 4 minutes. Cells were washed and lysed using buffer containing 1% Triton X-100, 0.1% deoxycholate and 0.1% SDS. Radioactivity in the lysate was measured in Packardt Top count after addition of liquid scintillant. Concentration response curves were plotted as a % of maximal response obtained in the absence of test antagonist. IC50 value was calculated from concentration response curve by nonlinear regression analysis using GraphPad PRISM software.
Percentage inhibition at concentrations of 1.0 μM and 10.0 μM are given in the table along with IC50 (nM) values for selected examples.

inhibition at 1 µM (1.0 μM test compound) [%] | inhibition at 10 µM [%] | IC50 [µM] | Percentage inhibition at 1.0 μM (1.0 μM test compound) [%] | Structure (SMILES)
0.5 | 19.4 |  |  | O=c1c(-c2ccccc2)c(/C=C/c2ccc(Cl)cc2)nc2ccccn12 [Example 1, 2-[(E)-2-(4-Chlorophenyl)vinyl]-3-phenyl-4H-pyrido[1,2-a]pyrimidin-4-one]
 | 76.2 |  | 41.6 | COc1cccc(/C=C/c2nc3ccccn3c(=O)c2-c2ccc(C#N)cc2)c1OC1CCCC1 [Example 5, 4-{2-[(E)-2-[2-(Cyclopentyloxy)-3-methoxyphenyl)vinyl]-4-oxo-4H-pyrido[1,2-a]pyrimidin-3-yl}benzonitrile]
77.9 | 98.9 |  |  | CCCOc1c(/C=C/c2nc3ccccn3c(=O)c2-c2ccc(C#N)cc2)cccc1OC [Example 7]
69 | 86.5 |  |  | CCCCCOc1c(/C=C/c2nc3ccccn3c(=O)c2-c2ccc(C(F)(F)F)cc2)cccc1OC [Example 11]
87.9 | 96.5 | < 0.5 |  | CCCCCOc1c(/C=C/c2nc3ccccn3c(=O)c2-c2ccc(C#N)cc2)cccc1OC [Example 12, 4-{2-[(E)-2-[3-Methoxy-2-pentyloxyphenyl)vinyl]-4-oxo-4H-pyrido[1,2-a]pyrimidin-3-yl}benzonitrile]
58 | 77.3 |  |  | CCCCCCOc1c(/C=C/c2nc3ccccn3c(=O)c2-c2ccc(C(F)(F)F)cc2)cccc1OC [Example 13]
85.1 | 92.3 | < 0.5 |  | CCCCCCOc1c(/C=C/c2nc3ccccn3c(=O)c2-c2ccc(C#N)cc2)cccc1OC [Example 14]
87.8 | 98.7 | < 0.5 |  | COc1cccc(/C=C/c2nc3ccccn3c(=O)c2-c2ccc(C#N)cc2)c1OCC1CC1 [Example 19]
45.9 | 76.7 | 1 to 2.5 |  | COc1cccc(/C=C/c2nc3ccccn3c(=O)c2-c2ccccc2)c1OC1CCCC1 [Example 20, 2-{(E)-2-[2-(Cyclopentyloxy)-3-methoxyphenyl]vinyl}-3-phenyl-4H-pyrido[1,2-a]-pyrimidin-4-one]
22.7 | 34.6 |  |  | COc1cccc(/C=C/c2nc3ccccn3c(=O)c2-c2cccc(C(F)(F)F)c2)c1OC1CCCC1 [Example 22, 2-{(E)-2-[(2-Cyclopentyloxy-3-methoxy)phenyl]vinyl}-3-(3-trifluoromethyl)phenyl-4H-pyrido[1,2-a]pyrimidin-4-one]
62.8 | 86.7 | 0.5 to 1 |  | COc1cccc(/C=C/c2nc3ccccn3c(=O)c2-c2ccc(C(F)(F)F)cc2)c1OC1CCCC1 [Example 23, 2-{(E)-2-[2-(Cyclopentyloxy)-3-methoxyphenyl]vinyl}-3-(4-trifluoromethyl)phenyl-4H-pyrido[1,2-a]pyrimidin-4-one]
48 | 69.3 |  |  | COc1cccc(-c2c(/C=C/c3cccc(OC)c3OC3CCCC3)nc3ccccn3c2=O)c1 [Example 26, 2-{(E)-2-[(2-Cyclopentyloxy-3-methoxy)phenyl]vinyl}-3-(3-methoxy)phenyl-4H-pyrido-[1,2-a]pyrimidin-4-one]

More lines, now with the values behind:

Structure (SMILES) | inhibition at 1 µM (1.0 μM test compound) [%] | inhibition at 10 µM [%] | IC50 [µM] | Percentage inhibition at 1.0 μM (1.0 μM test compound) [%]
O=c1c(-c2ccc(C(F)(F)F)cc2)c(/C=C/c2cccnc2)nc2ccccn12 [Example 2, 2-{(E)-2-(Pyridin-3-yl)vinyl}-3-(4-trifluoromethyl)phenyl-4H-pyrido[1,2-a]pyrimidin-4-one] | 5.7 | 11.2 |  | 
O=c1c(-c2ccc(C(F)(F)F)cc2)c(/C=C/c2cccs2)nc2ccccn12 [Example 3, 2-[(E)-2-(2-Thienyl)vinyl]-3-[4-(trifluoromethyl)phenyl]-4H-pyrido[1,2-a]pyrimidin-4-one] | 14.4 | 77.9 | 1 to 2.5 | 
O=c1c(-c2ccc(C(F)(F)F)cc2)c(/C=C/c2cccc3c2OCO3)nc2ccccn12 [Example 4, 2-[(E)-2-(1,3-Benzodioxol-4-yl)vinyl]-3-[4-(trifluoromethyl)phenyl]-4H-pyrido[1,2-a]pyrimidin-4-one] | 25.3 | 74 |  | 
CCCOc1c(/C=C/c2nc3ccccn3c(=O)c2-c2ccc(C(F)(F)F)cc2)cccc1OC [Example 6] | 71.5 | 67.5 |  | 
CCCCOc1c(/C=C/c2nc3ccccn3c(=O)c2-c2ccc(C(F)(F)F)cc2)cccc1OC [Example 8] | 76.3 | 89.7 |  | 
CCCCOc1c(/C=C/c2nc3ccccn3c(=O)c2-c2ccc(OC(F)(F)F)cc2)cccc1OC [Example 9, 2-[(E)-2-[2-Butoxy-3-methoxyphenyl)vinyl]-3-[4-(trifluoromethoxy)phenyl]-4H-pyrido-[1,2-a]pyrimidin-4-one] | 74.6 | 89 | 0.5 to 1 | 
CCCCOc1c(/C=C/c2nc3ccccn3c(=O)c2-c2ccc(C#N)cc2)cccc1OC [Example 10] | 82.8 | 100 |  | 
COc1cccc(/C=C/c2nc3ccccn3c(=O)c2-c2ccc(C(F)(F)F)cc2)c1OCCN(C)C [Example 15, 2-[(E)-2-{2-[2-(Dimethylamino)ethoxy]-3-methoxyphenyl}vinyl]-3-(4-trifluoromethylphenyl)-4H-pyrido[1,2-a]pyrimidin-4-one hydrochloride] | 0 | 31.7 |  | 
COc1cccc(/C=C/c2nc3ccccn3c(=O)c2-c2ccccc2)c1OCC1CC1 [Example 16, 2-{(E)-2-[2-(Cyclopropylmethoxy)-3-methoxyphenyl]vinyl}-3-phenyl-4H-pyrido[1,2-a]-pyrimidin-4-one] | 33.8 | 79.8 |  | 
COc1cccc(/C=C/c2nc3ccccn3c(=O)c2-c2ccc(C(F)(F)F)cc2)c1OCC1CC1 [Example 17] | 83.3 | 95.3 | < 0.5 | 
COc1cccc(/C=C/c2nc3ccccn3c(=O)c2-c2ccc(OC(F)(F)F)cc2)c1OCC1CC1 [Example 18] | 79.5 | 93.5 | < 0.5 | 
COc1cccc(/C=C/c2nc3ccccn3c(=O)c2-c2cc(F)cc(F)c2)c1OC1CCCC1 [Example 21, 2-{(E)-2-[2-(Cyclopentyloxy-3-methoxy)phenyl]vinyl}-3-(3,5-difluoro) phenyl-4H-pyrido[1,2-a]pyrimidin-4-one] | 27.2 | 39.3 |  | 
COc1cccc(/C=C/c2nc3ccccn3c(=O)c2-c2ccc(OC(F)(F)F)cc2)c1OC1CCCC1 [Example 24, 2-{(E)-2-[(2-Cyclopentyloxy-3-methoxy)phenyl]vinyl}-3-(4-trifluoromethoxy)phenyl-4H-pyrido[1,2-a]pyrimidin-4-one] | 20.6 | 3.6 | 1 to 2.5 | 
COc1cccc(/C=C/c2nc3ccccn3c(=O)c2-c2cccc(O)c2)c1OC1CCCC1 [Example 25, 2-{(E)-2-[2-(Cyclopentyloxy-3-methoxy)phenyl]vinyl}-3-(3-hydroxy)phenyl-4H-pyrido-[1,2-a]-pyrimidin-4-one] | 20.7 | 93.1 | 1 to 2.5 | 
